Laboratory results reported in patent EP4772505A1, “COMPOUND FOR DEGRADING ANDROGEN RECEPTOR AND MEDICAL USE THEREOF” (Ubix Therapeutics, Inc., priority 2023, dated 2025).
Where two headings read alike, the source gives them in different places.

Molecular target: T1, Androgen Receptor (AR) (Homo sapiens, UniProt P10275, T878A)
T1 construct: endogenous in cells; host or cells: LNCaP
T1 sequence (P10275 1-920 T878A): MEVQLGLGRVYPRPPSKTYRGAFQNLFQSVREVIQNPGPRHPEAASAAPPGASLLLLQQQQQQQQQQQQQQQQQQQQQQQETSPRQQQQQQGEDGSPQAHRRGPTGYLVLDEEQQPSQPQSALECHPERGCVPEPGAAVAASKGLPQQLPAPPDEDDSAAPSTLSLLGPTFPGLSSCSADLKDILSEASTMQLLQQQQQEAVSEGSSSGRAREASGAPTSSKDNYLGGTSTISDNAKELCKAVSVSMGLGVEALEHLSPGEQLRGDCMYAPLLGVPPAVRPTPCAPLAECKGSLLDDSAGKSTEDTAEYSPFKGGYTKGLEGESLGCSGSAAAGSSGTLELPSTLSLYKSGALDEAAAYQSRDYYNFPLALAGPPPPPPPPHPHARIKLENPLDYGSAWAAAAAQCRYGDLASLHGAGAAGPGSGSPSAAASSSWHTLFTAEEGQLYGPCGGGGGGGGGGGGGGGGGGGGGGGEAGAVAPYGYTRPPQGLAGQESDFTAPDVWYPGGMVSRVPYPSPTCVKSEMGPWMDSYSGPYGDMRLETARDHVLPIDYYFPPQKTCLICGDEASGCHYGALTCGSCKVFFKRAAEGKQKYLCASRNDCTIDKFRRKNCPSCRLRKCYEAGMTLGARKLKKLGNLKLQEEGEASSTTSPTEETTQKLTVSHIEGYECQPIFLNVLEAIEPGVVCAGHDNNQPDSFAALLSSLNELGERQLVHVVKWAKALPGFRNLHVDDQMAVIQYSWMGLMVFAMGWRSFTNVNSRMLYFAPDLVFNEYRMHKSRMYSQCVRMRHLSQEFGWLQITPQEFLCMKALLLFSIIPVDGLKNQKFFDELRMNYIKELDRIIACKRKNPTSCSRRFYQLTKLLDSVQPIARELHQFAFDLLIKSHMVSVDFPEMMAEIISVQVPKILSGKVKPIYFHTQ
Assay: Measurement of AR protein degradation in LNCaP cells by Western blotting
Assay type: cell-based
Details: read-out: AR degradation in LNCaP cells (%)
Procedure: The amount of AR protein present in LNCaP or VCaP cells was measured after treating them with the synthesized compound. The amount of AR protein was measured using Western blotting. The protocol for the experiments using LNCaP or VCaP cells was as follows.
[Culture] LNCaP cells were resuspended in RPMI1640 medium + HEPES (Hyclone, SH30255.01), 10% FBS (Hyclone, SV30207.02), and 1% Penicillin-streptomycin (Welgene, LS 202-02). 3 x 10^5 cells/mL were seeded in 12-well plates (1 mL per well) and cultured for 3 days. VCaP cells were resuspended in IMDM MEDIUM (Hyclone, SH30228.01), 20% FBS (Hyclone, SV30207.02), and 1% Penicillin-streptomycin (Welgene, LS 202-02), seeded at 9 x 10^5/mL in 1 mL per 12-well plate, and cultured for 3 days.
[Compound Treatment] 10 µL of 100x stock (e.g., 0.1, 1, 10 µM) compound solution at the final compound treatment concentration (e.g., 0.001, 0.01, 0.1 µM) was added to each well in 1 mL media, and cells were harvested after 20 hours. For DC50 measurement, 100x stock (0.01, 0.1, 1, 10, 100, 1000 µM) compound solutions at the final compound treatment concentration (0.0001, 0.001, 0.01, 0.1, 1, 10 µM) were used.
[Cell lysis] The cell pellet was suspended using 1% SDS lysis buffer (50 mM Tris, 1 mM EDTA, 1% SDS, pH 8.0, 0.5 mM PMSF, 1x Protease/Phosphatase inhibitor Cocktail (Cell Signaling Technology, 5872S)), and sonication (70% AMP, 10 cycles (30 sec ON/59 sec OFF)) was performed. After centrifugation at 4°C and 20,000 g for 20 minutes, the cell lysate was obtained and transferred to a new tube.
[Protein Quantification] A BCA protein assay (SMART™ BCA Protein Assay Kit, iNtRON Biotechnology, 21071) was performed using a 96-well microplate. 5 µL of cell lysate and 5 µL of 1% SDS lysis buffer were added to each well of the 96-well plate, followed by an additional 200 µL of BCA reagent (Reagent A: Reagent B = 50:1). The wells were incubated at 37°C for 30 minutes and cooled to room temperature for 10 minutes. After shaking for 10 seconds, the absorbance was measured at a wavelength of 562 nm. The unknown protein concentration was determined using a BSA standard curve (0, 0.125, 0.25, 0.5, 1, 2 mg/mL). Western blotting samples were prepared by mixing cell lysate, 1% SDS lysis buffer, 4x NuPAGE™ LDS Sample buffer (Invitrogen, NP0008), and 10X NuPAGE™ Sample Reducing Agent (Invitrogen, NP0009) and boiling at 70°C for 10 minutes.
[Electrophoresis] 10 µg of protein sample was loaded into each well of a NuPAGE™ 4 to 12%, Bis-Tris, 1.0 mm Mini Protein Gel, 15-well, 17-well, or 26-well (Invitrogen, NP0323BOX, NP0329BOX, or WG1403BOX) and electrophoresed for 40 minutes using NuPAGE™MES SDS Running Buffer (Invitrogen, NP0002) at 200 V (constant V).
[Transfer] Transfer was performed for 15 or 18 minutes using the electrophoresed gel and the Trans-Blot® Turbo™ Transfer Starter System (Bio-RAD, #17001918, Mini Nitrocellulose) at 1.3 A (constant A) and 25 V (limit V). To confirm protein transfer, 15 mL of Ponceau S solution (Sigma, P7170-1L) was used to stain for 1 minute, and then washed to check the degree of transfer.
[Blocking] The membrane for AR and GAPDH detection was blocked with 5% skim milk/0.2% TBST (Skim milk: BD, 232100/ 20X TBS: Biosesang, TR2008-100-00/ 10% Tween 20 Solution: Bio-RAD, #161-0781) for 45 minutes.
[Antibodies and Detection] Primary AR antibody (Androgen Receptor: CST, 5153S) was mixed with 5% skim milk/0.2% TBST at a ratio of 1:1,000 and reacted at room temperature for 3 hours or at 4°C overnight. Primary GAPDH antibody (CST, 2118S) was mixed with 5% skim milk/0.2% TBST at a ratio of 1:2,000 and reacted at room temperature for 3 hours or at 4°C overnight. Afterwards, TBST (0.2% Tween 20) was used for washing three times every 5 minutes. Secondary antibody to AR antibody, Anti-rabbit IgG, HRP-linked Antibody (CST, 7074S), was mixed with 5% skim milk/0.2% TBST at a ratio of 1:5,000 and reacted at room temperature for 45 minutes. […]

[1] = 10 nM compound, 20 hours, LNCaP cells
[2] = 100 nM compound, 20 hours, LNCaP cells

Row | SMILES | Dmax at 0.01 µM (LNCaP, 20 h) [%] | Dmax at 0.1 µM (LNCaP, 20 h) [%] | Dmax at 0.01 µM [1] [%] | Dmax at 0.1 µM [2] [%]
1 | N#Cc1ccc(N2CCC(C(=O)Nc3ccc(OC4CCN(CC5CCN(c6ccc(NC7CCC(=O)NC7=O)cc6Cl)CC5)CC4)cn3)CC2)cc1C(F)(F)F (centres unmarked) [Example 17, N-(5-((1-((1-(2-chloro-4-((2,6-dioxopiperidin-3-yl)amino)phenyl)piperidin-4-yl)methyl)piperidin-4-yl)oxy)pyridin-2-yl)-1-(4-cyano-3-(trifluoromethyl)phenyl)piperidine-4-carboxamide] | 77 | 99 | – | –
2 | COc1cc(N2CCC(C(=O)Nc3ccc(OC4CCN(CC5CCN(c6ccc(NC7CCC(=O)NC7=O)cc6F)CC5)CC4)nn3)CC2)ccc1C#N (centres unmarked) [Example 16, 1-(4-cyano-3-methoxyphenyl)-N-(6-((1-((1-(4-((2,6-dioxopiperidin-3-yl)amino)-2-fluorophenyl)piperidin-4-yl)methyl)piperidin-4-yl)oxy)pyridazin-3-yl)piperidine-4-carboxamide] | – | – | 93 | 98
3 | COc1cc(N2CCC(C(=O)Nc3ccc(OC4CCN(CC5CCN(c6ccc(NC7CCC(=O)NC7=O)cc6F)CC5)CC4)cn3)CC2)ccc1C#N (centres unmarked) [Example 13, 1-(4-cyano-3-methoxyphenyl)-N-(5-((1-((1-(4-((2,6-dioxopiperidin-3-yl)amino)-2-fluorophenyl)piperidin-4-yl)methyl)piperidin-4-yl)oxy)pyridin-2-yl)piperidine-4-carboxamide] | – | – | 91 | 99
4 | N#Cc1ccc(N2CCC(C(=O)Nc3ccc(OC4CCN(CC5CCN(c6ccc(N[C@H]7CCC(=O)NC7=O)cc6F)CC5)CC4)cn3)CC2)cc1C(F)(F)F [Example 2, (S)-1-(4-cyano-3-(trifluoromethyl)phenyl)-N-(5-((1-((1-(4-((2,6-dioxopiperidin-3-yl)amino)-2-fluorophenyl)piperidin-4-yl)methyl)piperidin-4-yl)oxy)pyridin-2-yl)piperidine-4-carboxamide] | 86 | 99 | – | –
